Laboratory results as given in patent US6120997A, “Nucleic acid binders having an hydroxyamine motif” (The Scripps Research Institute, priority 1998, dated 2000).

Assays:
[1] = system: bacterial protein synthesis; details: cited from earlier work
[2] = NMR binding study with dimethylphosphate in water; details: concentration ranges accessible by NMR
Description: (§1) To investigate whether 1,3-hydroxyamine substructures may be involved in binding in aqueous solution, we turned our attention to neamine (12; FIG. 4), a pseudodisaccharide substructure commonly found in a wide range of aminoglycoside antibiotics. […] These weak forces may, however, be enhanced by increasing the charge of the interacting species. In fact, many recognition events involving nucleic acids--including those by aminoglycosides--are likely to have a strong contribution from their polyionic character. We therefore turned our attention to sulfate, as it is a tetrahedral oxyanion similar to phosphate and its double negative charge mimics the effect of a polyanion. Furthermore, it has a defined ionization state. Since the spectra of aminoglycosides are highly dependent on pH, and even minor pH changes can outweigh any small complexation induced shifts, we performed binding studies at low pH, where neamine is fully protonated. […] Analysis of ^13 C-NMR spectra provided a clearer picture (FIG. 4). […] Thus, the selectivity found in aqueous solution is in full agreement with the order of binding affinities determined in the model compounds.

[3] = 13C-NMR titration of neamine with sodium sulfate in water; format: binding; details: pH 3.5
Description: FIGS. 4A-4D illustrate the titration of neamine (12) with sodium sulfate at pH 3.5: (A) Titration curve for C1'. (B) Job plot; x=% complex formation. (C) Structure of neamine indicating the sites of maximum observed shift. (D) Maximum observed shift.
as §1

AS-wt = assay: SPR binding of aminoglycosides to decoding region A-site model AS-wt; design: species or system E. coli
Procedure: The RNA binding properties of 100-800 were analyzed using a surface plasmon resonance based assay that was recently developed in these laboratories. This assay allows the determination of both affinity and specificity of small molecule-RNA interactions. For the analysis, the compounds were injected over a matrix containing RNA that was immobilized through a biotin tag and the equilibrium binding values were recorded at various concentrations.
Non-linear curve fitting was then used to determine the values of the dissociation constants (KD). The specificity of binding, i.e. the ability to discriminate between different RNA sequences was evaluated by comparing the binding to the target sequence (AS-wt) and the negative control (AS-U1495A). The ratio of KD(AS-U1495A) to KD(AS-wt) was taken to be a representation of the specificity of the binding event.
For the quantitative measurement of aminoglycoside binding to these sequences, we utilized our recently developed SPR-based assay. Biotinylated derivatives of all sequences were prepared by in vitro transcription in the presence of guanosine 5'-monophosphorothioate followed by alkylation with a biotin iodoacetamide derivative. The RNA conjugates were then immobilized onto streptavidin coated SPR-sensorchips for analysis.
In the same manner as illustrated for paromomycin, a panel of aminoglycosides was screened and the results are compiled in the table of FIGS. 46 and 47. In addition to the naturally occuring aminoglycoside antibiotics, some of the compounds in FIG. 46 are synthetically derived, unnatural aminoglycosides. The number of independent determinations for each dissociation constant ranged from 1-3. […] All data were recorded under near physiological salt conditions (HBS-buffer: 150 mM NaCl, 10 mM HEPES, pH7.4, 3.4 mM EDTA) unless noted otherwise. Data points were taken at concentrations ranging from […]. Below this concentration range, surface transport limitations prevent the attainment of equilibrium.
Plasmon resonance and antimicrobial testing for Example 4. Synthesis of the biotinylated RNA and surface plasmon resonance detected binding experiments were performed as described vida supra. Solution conditions: 150 mM NaCl, 10 mM HEPES (pH 7.4), 3.4 mM EDTA. KD determination from the binding curves.
The fitting routine of the program kaleidagraph was used for all calculations. The starting values for a and b were set to 1 and 0 respectively. The number of KD values used in the fitting was adjusted depending on the observed range of equivalents bound but generally varied from 3 to 4.
General Procedures for SPR Binding Studies done in Example 5. Samples were prepared by serial dilutions from stock solutions in RNase free microfuge tubes (Ambion) and were centrifuged at 14000 rpm for degassing. Unless otherwise noted, all binding studies were carried out using HBS buffer (Pharmacia Biosensor AB) which was used as obtained. All procedures for binding studies were automated as methods using repetitive cycles of sample injection and regeneration. Typically, buffer was injected in the first two cycles to establish a stable baseline value. Samples were injected at a flowrate of […] using either the KINJECT command. All aminoglycoside samples were injected from autoclaved 7 mm plastic vials that were capped with pierceable plastic crimp caps. To minimize carry over, samples were injected in order of increasing concentration. The running buffer was identical to the injection buffer. Expected values for the equilibrium response of one equivalent of analyte were calculated from the relative molecular weight of the analyte and the immobilized RNA ligand in each flowcells and adjusted with a correction factor of 0.76 which arises from the different molar refractive indices of RNA and the analyte. […]

[4] = system: Escherichia coli (ATCC 25922); assay: minimum inhibitory concentration, broth dilution technique; format: cell-based; details: E. coli, liquid culture
Description: We reasoned that this modification would provide the cleanest test for probing the ionic contribution, since hydrogen bond donor abilities, electronegativity and steric demand are similar for both functional groups. In order to learn how well the model system correlates with in vivo activity, we checked the new compounds for antibacterial activity against three bacterial strains using the disc method (Kirby-Bauer technique). The minimum inhibitory concentrations (MICs) of the compounds were then determined using the broth dilution technique. For antibiotic testing protocols, see: (a) Disk testing protocols: Phillips, I.; Williams, D., in Laboratory Methods in Antimicrobial Chemotherapy, Garrod, L. (ed.) Churchill Livingstone Press: Edinburgh, 1978, pp. 3-30. (b) MIC determination: Waterworth, P. M., in Laboratory Methods in Antimicrobial Chemotherapy, Garrod, L. (ed.) Churchill Livingstone Press: Edinburgh, 1978, pp. 31-40; Barry, A. L. The Antimicrobic Susceptibility Test: Principles and Practice, Lea and Febiger: Philadelphia (1976). (c) Standards: Lorian, V., Antibiotics in Laboratory Medicine (2nd. ed.), Williams and Wilkins: Baltimore, 1986.
FIG. 39A gives the zone diameters measured for the three bacterial strains. The zone diameters measured for the strains with known antibiotics are well within the accepted limits. […] It is worth noting that some testing protocols recommend overnight growth of the cultures, rather than the minimum time required to obtain good growth of the control. MIC values were tested for several of the control antibiotics using overnight growth, and the MIC values observed were 2-4× greater than those observed for 4-6 hour growth.
Minimal Inhibitory Concentration (MIC) testing. E. coli ATCC 25922 was grown in Mueller-Hinton broth (cation-adjusted, BBL Microbiology Systems) to an optical density of approx. 0.5 (absorbance read at 600 nm), then diluted to an OD600 of 0.1. Samples of antibiotic were prepared in Mueller-Hinton broth, typically a series of 2-fold dilutions from […]. […] The absorbance of each sample was read (1=600 nm), and MIC was considered to be the lowest antibiotic concentration at which the absorbance was less than 1% of the no-antibiotic control.

[5] = molecular target: Rev27 (synthetic Rev34-50 RNA-binding peptide with flanking Ala and N-terminal Cys) (Human immunodeficiency virus 1) (UniProt P04618); assay: SPR; details: pH 7.4, 10 mM HEPES, 150 mM NaCl, 150 mM Na2SO4, 3.4 mM EDTA, 5 mM DTT, 10 C; 1:1; FIG. 7 legend gives 200 nM; Kd <10 nM at 5 C in 300 mM NaCl without sulfate
[6] = NMR dilution experiments with chloride counterion in DMSO-d6; format: binding
Procedure: (§2) [a] NMR dilution experiments with the preformed 1:1 salt complexes were performed in DMSO-d6 at […]; [b] calculated maximum shift at full complexation in ppm.
(§3) In order to determine binding constants we prepared defined 1:1 salt complexes and measured their dissociation upon stepwise dilution in [D6 ]DMSO by following the shifts of NH and OH resonances. The chemical shift values of the totally uncomplexed state (o) and the fully complexed state (n) and the stability constant Ka were subsequently determined by curve fitting. […] In all cases, data could be fitted to a 1:1 binding isotherm. […] This order mirrors the order of binding affinities and is consistent with the interpretation that differential involvement of the hydroxyl group in hydrogen bonding provides for the energetic differences in complexation.

[7] = NMR dilution experiments of 1:1 salt complexes in DMSO-d6 (phosphodiester recognition); format: binding
Procedure: as §2, §3

UniProt P04618, sequence (P04618 whole entry): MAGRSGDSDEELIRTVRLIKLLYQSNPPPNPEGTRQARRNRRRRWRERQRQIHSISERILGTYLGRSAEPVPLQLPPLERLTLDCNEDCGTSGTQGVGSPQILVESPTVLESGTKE

In the case of `NC[C@H]1O[C@H](O[C@H]2[C@H](O)[C@@H](O)[C@H](N)C[C@@H]2N)[C@H](N)[C@@H](O)[C@@H]1O` [Neamine], the “effect on bacterial protein synthesis (in words)” value [1] is given as “induces miscoding during translation”, the “binding to dimethylphosphate in water (in words)” value [2] is given as “no detectable binding” and the “binding stoichiometry with sulfate (method of Job)” value [3] is given as 1:1 complex. The Kd (AS-wt; 150 mM NaCl, 10 mM HEPES (pH 7.4), 3.4 mM EDTA, read-out: dissociation constant, AS-wt) was 7.8 µM, the “specificity for AS-wt over negative controls (in words)” value (AS-wt; Example 5, HBS-buffer) was “moderate specificity for AS-wt over AS-U1495A” and the “specificity for AS-wt relative to AS-U1495A” value (AS-wt; KD(AS-U1495A)/KD(AS-wt)) was “approximately 4 fold”. The “antibacterial activity / MIC compared with neomycin B (in words)” value [4] was “inferior anti microbial activity”.
In the case of wt-RRE-II, the Kd [5] is reported as 0.215 µM.
In the case of `CO[C@H]1O[C@H](CNCc2ccccc2)[C@@H](O)[C@H](OCc2ccccc2)[C@H]1OCc1ccccc1` [Compound 3], the “chloride binding (in words)” value [6] is reported as “lower chloride binding compared to 2, 4 and 5” and the “selectivity for dimethylphosphate over chloride” value [7] is reported as 7 fold.
With `CO[C@H]1O[C@H](CN)[C@@H](O)[C@H](OCc2ccccc2)[C@H]1OCc1ccccc1` [Compound 2] the “dimethylphosphate binding affinity (in words)” value [7] was “higher affinity than bicyclic guanidine 6” and the “selectivity for dimethylphosphate over chloride” value [7] was 10 fold.
